Source: PMC3475186 (Cell, 2012)

Molecular target: hTPC2 (TPC2; TPCN2; hTPC2-EGFP) (Homo sapiens, UniProt Q8NHX9)
Assay: whole-endolysosome patch clamp
Type: cell-based

Sequence of hTPC2 (TPC2; TPCN2; hTPC2-EGFP) (Q8NHX9 whole entry): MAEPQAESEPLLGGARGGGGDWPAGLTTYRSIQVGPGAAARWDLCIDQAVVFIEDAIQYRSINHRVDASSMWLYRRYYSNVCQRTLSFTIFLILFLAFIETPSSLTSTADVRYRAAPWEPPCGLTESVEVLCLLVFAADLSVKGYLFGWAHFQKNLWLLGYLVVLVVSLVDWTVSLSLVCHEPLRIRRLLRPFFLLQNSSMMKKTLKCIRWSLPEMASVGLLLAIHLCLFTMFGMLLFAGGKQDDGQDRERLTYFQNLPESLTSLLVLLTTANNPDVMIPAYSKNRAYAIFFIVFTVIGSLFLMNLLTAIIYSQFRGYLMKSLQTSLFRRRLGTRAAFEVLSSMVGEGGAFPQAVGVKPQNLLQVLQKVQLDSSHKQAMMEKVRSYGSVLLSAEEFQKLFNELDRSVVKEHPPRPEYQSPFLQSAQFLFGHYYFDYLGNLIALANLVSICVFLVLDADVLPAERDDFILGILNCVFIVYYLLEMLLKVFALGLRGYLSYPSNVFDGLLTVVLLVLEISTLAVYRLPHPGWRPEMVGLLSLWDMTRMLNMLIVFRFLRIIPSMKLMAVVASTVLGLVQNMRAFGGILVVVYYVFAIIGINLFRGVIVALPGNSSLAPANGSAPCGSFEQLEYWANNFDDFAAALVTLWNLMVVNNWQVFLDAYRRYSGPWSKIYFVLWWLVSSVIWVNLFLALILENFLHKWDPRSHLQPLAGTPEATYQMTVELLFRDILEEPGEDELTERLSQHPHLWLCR

CCCCCCCC(=O)OC[C@H](COP(=O)(O)O[C@@H]1[C@H](O)[C@H](OP(=O)(O)O)[C@@H](O)[C@H](OP(=O)(O)O)[C@H]1O)OC(=O)CCCCCCC [diC8 PI(3,5)P2]
EC50: 0.39 ± 0.094 µM
